The record followed here is patent publication US20220241310A1, “THIARABINE- AND THIARABINE PRODRUG-BASED TREATMENTS” (Southern Research Institute, priority 2019, published 2022).

By IC50 is commonly meant the concentration that inhibits the measured activity by half.

One test has as its system OVCAR-3. Nature of the test: IC50 in OVCAR-3 tumor cell model. It counts as cell-based. The settings on record: human ovarian cancer model. The text has this: (§1) Representative IC50 values of thiarabine and related prodrugs tested in two tumor cell models, a humanized murine colorectal model MC38^hPDL-1 and a human ovarian cancer model OVCAR-3, are shown in Table 1 below.

The next test has as its system MC38^hPDL-1. Put plainly: IC50 in MC38^hPDL-1 tumor cell model. The test is classed as cell-based. The settings on record: Mus musculus, MC38-hPD-L1; humanized murine colorectal model; read-out: MC38^huPD=L1 (IC50 μM).
From the text: as §1

For test [1], the system named is MC38^hPDL-1 colon tumor cells. Put plainly: MC38^hPDL-1 tumor response to mono- and combination-therapy in mice. The test is classed as in vivo, C57BL/6^hPD-1/hPD-L1 mice. As to conditions: combination with Keytruda; subcutaneous MC38^hPDL-1 tumor; FIG. 1A/1B. How it is done: A total of 32 C57BL/6^hPD-1/hPD-L1 mice, male and female, were injected subcutaneously with five hundred thousand (5×10^5) MC38^hPDL-1 colon tumor cells in the right flank at a volume of 0.1 mL. Innoculation day was marked as Day 0. Tumor measurements were taken biweekly for the duration of the study. Tumor weights (mg) were calculated using the equation for an ellipsoid sphere: (l×w^2)/2=mm^3, where l and w refer to the larger and smaller dimensions collected at each measurement and assuming unit density (1 mm^3=1 mg). Target tumor weight for initiation of treatment was approximately 75 to 144 mg for a target group mean tumor weight of approximately 110 mg. The animals on study were randomly assigned to four groups to contain two males and six females. Dosing began on day 13 of the study. Re-challenge of MC38^1-1 in the opposite flank of tumor-free mice from the Keytruda and combination groups occurred on day 31 of the study and mice were monitored for tumor growth for the duration of the study.
Thiarabine: The 500 mg vial was reconstituted with 4.6 mL of saline (0.9% Sodium chloride) to yield a 100 mg/mL stock solution. Each day of dosing, the 100 mg/mL solution was diluted to […] with saline. The dose concentration was 10 mL/kg with a dose volume of 0.1 mL for dose of 30 mg/kg. Mice were dosed IP Q2Dx10. […]

Turning to `CC(C)OC(=O)[C@H](C)NP(=O)(OC[C@H]1S[C@@H](n2ccc(N)nc2=O)[C@@H](O)[C@@H]1O)Oc1ccccc1` (single isomer, unassigned) [SRI-41302], the IC50 in the test with OVCAR-3 turned out to be 1.25 µM; in the test on MC38^hPDL-1, 15.8 µM. Also, the “tumor volume over time” value in test [1] was “total tumor regression”.

Take `CCC(CC)COC(=O)[C@H](C)NP(=O)(OC[C@H]1S[C@@H](n2ccc(N)nc2=O)[C@@H](O)[C@@H]1O)Oc1ccccc1` (stereo partly drawn) [SRI-44340, ethylbutyl ((((2R,3S,4S,5R)-5-(4-amino-2-oxopyrimidin-1(2H)-yl)-3,4-dihydroxytetrahydrothiophen-2-yl)methoxy)(phenoxy)phosphoryl)-1-alaninate]: the IC50 with OVCAR-3 was 0.65 µM.

On to `Nc1ccn([C@@H]2S[C@H](CO)[C@@H](O)[C@@H]2O)c(=O)n1` [Thiarabine], for which the half-inhibitory concentration (IC50) came to 1.13 µM with OVCAR-3 and 2.71 µM in the test with MC38^hPDL-1. For the same compound, the “tumor volume over time” value in test [1] is “total tumor regression”.
